Measurements reported in patent US10221163B2 (priority 2015, dated 2019).
Read-outs that look alike come from different tables or passages of the source.

How the values were obtained:
[1] = test system: Pseudomonas aeruginosa MB9798 vs MB9799
In short: (§1)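 Microbroth MIC tests in PAO1-background strains with fixed imipenem and/or ceftazidime, usually at the CLSI breakpoint, plus fixed class A/C β-lactamase inhibitor against AmpC. MBL inhibitor titrated; concentration restoring susceptibility recorded and compared as fold difference between efflux+ MB9798 and efflux− MB9799.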

[2] = test system: Pseudomonas aeruginosa efflux+ (MB9798), IMP-1; assay type: cell-based; design: Concentration of metallo-β-lactamase inhibitor which restores susceptibility of efflux + (MB9798) strain to imipenem: unit not given here; conditions: C, D serine β-lactamase inhibitor closely related to relebactam; for P. aeruginosa expressing IMP-1, efflux + (MB9798) MITC95: concentration restoring susceptibility to imipenem at 2 μg/mL in the presence of a class A; for Concentration of metallo-β-lactamase inhibitor which restores susceptibility of efflux + (MB9798) strain to imipenem: imipenem at 2 μg/mL, in the presence of a class A
In short: as §1

[3] = target: VIM-1 (Pseudomonas aeruginosa (strain ATCC 15692 / DSM 22644 / CIP 104116 / JCM 14847 / LMG 12228 / 1C / PRS 101 / PAO1), UniProt A0A0F7KYQ8); assay: biochemical; conditions: CCF2-FA substrate, 30 pM enzyme, 2 hours at 25° C.
In short: (§2)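 Class B activity is measured in the presence of compound by fluorescence with CCF2-FA after a 2-hour incubation at 25° C. IC50 is taken from a 4-parameter fit of semi-logarithmic dose-response data.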

[4] = test system: Serratia marcescens expressing IMP-1 (CL5741); assay type: cell-based; conditions: for Serratia marcescens expressing IMP-1 (CL5741) MITC95: with imipenem 1 μg/ml; for Serratia marcescens MITC95: IMP-1 strain CL5741, with imipenem 1 μg/ml
In short: (§3)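 Colonies grown overnight on blood agar at 35° C were suspended in saline, diluted 1:100 into 1.1×CAMHB and dispensed. Imipenem was added to 1 μg/ml, then test compound. After 22 hours to 24 hours at 35° C, absorbance was recorded.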

[5] = test system: Escherichia coli expressing NDM-1 (CLB30005, CLB30016); assay type: cell-based; conditions: with imipenem 1 μg/ml; for Escherichia coli MITC95: NDM-1 strain
In short: as §3

[6] = test system: Klebsiella pneumoniae expressing VIM-1 (IHMA599644); assay type: cell-based; conditions: for Klebsiella pneumoniae expressing VIM-1 (IHMA599644) MITC95: with imipenem 1 μg/ml; for Klebsiella pneumoniae MITC95: VIM-1 strain IHMA599644, with imipenem 1 μg/ml
In short: as §3

[7] = target: IMP-1 (Serratia marcescens, UniProt P52699); assay: biochemical; assay type: biochemical; conditions: fluorescence assay, CCF2-FA substrate, 2 pM enzyme, 2 hours at 25° C.; read-out: IMP-1 IC50
In short: as §2

[8] = target: NDM-1 (Klebsiella pneumoniae, UniProt C7C422); assay: biochemical; assay type: biochemical; conditions: fluorescence assay, CCF2-FA substrate, 1 pM enzyme, 2 hours at 25° C.; read-out: NDM-1 IC50
In short: as §2

[9] = test system: Pseudomonas aeruginosa efflux− (MB9799), IMP-1; assay type: cell-based; conditions: C, D serine β-lactamase inhibitor closely related to relebactam; for P. aeruginosa expressing IMP-1, efflux − (MB9799) MITC95: concentration restoring susceptibility to imipenem at 2 μg/mL in the presence of a class A; for Concentration of metallo-β-lactamase inhibitor which restores susceptibility of efflux − (MB9799) strain to imipenem: imipenem at 2 μg/mL, in the presence of a class A
In short: as §1

[10] = ratio MITC95 PA_9798/MITC95 PA_9799
[11] = fluorescence assay, read-out: VIM-1 IC50
[12] = 95% inhibition of bacterial growth
[13] = fold difference between efflux+ (MB9798) and efflux− (MB9799) strains, imipenem at 2 μg/mL

Chain of NDM-1 (C7C422 whole entry, looked up, species assumed): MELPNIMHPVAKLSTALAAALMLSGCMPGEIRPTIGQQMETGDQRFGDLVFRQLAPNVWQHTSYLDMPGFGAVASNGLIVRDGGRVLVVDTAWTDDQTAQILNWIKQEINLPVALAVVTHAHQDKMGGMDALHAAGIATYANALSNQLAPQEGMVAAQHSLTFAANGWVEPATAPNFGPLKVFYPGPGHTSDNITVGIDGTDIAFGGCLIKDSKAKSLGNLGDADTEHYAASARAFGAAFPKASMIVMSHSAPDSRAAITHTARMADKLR
Chain of IMP-1 (P52699 whole entry, looked up, species assumed): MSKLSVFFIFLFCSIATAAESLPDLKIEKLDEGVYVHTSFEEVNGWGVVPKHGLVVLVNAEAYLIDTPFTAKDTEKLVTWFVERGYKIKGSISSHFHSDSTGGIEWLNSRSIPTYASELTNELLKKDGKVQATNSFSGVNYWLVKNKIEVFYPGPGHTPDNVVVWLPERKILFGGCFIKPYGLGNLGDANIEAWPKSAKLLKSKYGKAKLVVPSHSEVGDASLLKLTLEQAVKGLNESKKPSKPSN

SMILES	Efflux ratio [1, 10]	P. aeruginosa expressing IMP-1, efflux + (MB9798) MITC95 [2]	IC50 [3, 11]	Serratia marcescens expressing IMP-1 (CL5741) MITC95 [4, 12]	Escherichia coli expressing NDM-1 (CLB30016) MITC95 [5, 12]	Klebsiella pneumoniae expressing VIM-1 (IHMA599644) MITC95 [6, 12]	IC50 [7]	IC50 [8]	P. aeruginosa expressing IMP-1, efflux − (MB9799) MITC95 [9]	Serratia marcescens MITC95 ([4]; 95% inhibition of growth)	Escherichia coli MITC95 ([5]; 95% inhibition of growth)	Klebsiella pneumoniae MITC95 ([6]; 95% inhibition of growth)	Efflux ratio [1, 13]	Concentration of metallo-β-lactamase inhibitor which restores susceptibility of efflux + (MB9798) strain to imipenem [2]	Serratia marcescens MITC95 [4, 12]	Escherichia coli MITC95 [5, 12]	Klebsiella pneumoniae MITC95 [6, 12]	Concentration of metallo-β-lactamase inhibitor which restores susceptibility of efflux − (MB9799) strain to imipenem [9]	IC50 ([3]; VIM-1 IC50, fluorescence assay)
Cl.Cn1c(N)nc2c(-c3ccc(S(=O)(=O)NCCN)c(S(N)(=O)=O)c3-c3nn[nH]n3)cccc21 [Example 10, 4-(2-amino-1-methyl-1H-benzo[d]imidazol-4-yl)-N1-(2-aminoethyl)-3-(2H-tetrazol-5-yl)benzene-1,2-disulfonamide hydrochloride]	1.00	0.7656 µM	0.177 nM	0.6406 µM	0.1875 µM	1.531 µM	0.235 nM	0.0901 nM	0.7656 µM										
Nc1ccc(-c2ccc(S(=O)(=O)NC[C@@H](N)CO)c(S(N)(=O)=O)c2-c2nn[nH]n2)cn1 [Example 365, (R)—N1-(2-amino-3-hydroxypropyl)-4-(6-aminopyridin-3-yl)-3-(2H-tetrazol-5-yl) benzene-1,2-disulfonamide]	2.00	1.563 µM	0.246 nM				0.59 nM	0.259 nM	0.7813 µM	0.3906 µM	0.1953 µM	3.125 µM							
C[C@H](CCN)NS(=O)(=O)c1ccc(-c2ccc(N)nc2)c(-c2nn[nH]n2)c1S(N)(=O)=O [Example 498, (R)-N1-(4-aminobutan-2-yl)-4-(6-aminopyridin-3-yl)-3-(1H-tetrazol-5-yl)benzene-1,2-disulfonamide]			0.0512 nM				0.0763 nM	0.0146 nM					1.00	0.7813	1.563 µM	1.563 µM	3.125 µM	0.7813	
Nc1nc2c(-c3ccc(S(=O)(=O)N4CCNCC4)c(S(N)(=O)=O)c3-c3nn[nH]n3)cccc2o1 [Example 159, 3-(2-aminobenzo[d]oxazol-4-yl)-6-(piperazin-1-ylsulfonyl)-2-(2H-tetrazol-5-yl)benzenesulfonamide]	2.00	3.125 µM	0.51 nM	1.563 µM	1.563 µM	3.125 µM	1.29 nM	0.195 nM	1.563 µM										
Cn1c(N)nc2c(-c3ccc(S(=O)(=O)NC[C@@H](O)CN)c(S(N)(=O)=O)c3-c3nn[nH]n3)cccc21 [Example 308, (S)-4-(2-amino-1-methyl-1H-benzo[d]imidazol-4-yl)-N1-(3-amino-2-hydroxypropyl)-3-(2H-tetrazol-5-yl)benzene-1,2-disulfonamide]	1.00	0.7813 µM					0.403 nM	0.0619 nM	0.7813 µM	0.7813 µM	0.3906 µM	1.563 µM							0.179 nM
NCc1nc2cc(-c3ccc(S(=O)(=O)NC[C@H](O)CN)c(S(N)(=O)=O)c3-c3nn[nH]n3)ccc2[nH]1 [Example 464, (R)—N1-(3-amino-2-hydroxypropyl)-4-(2-(aminomethyl)-1H-benzo[d]imidazole-5-yl)-3-(2H-tetrazol-5-yl)benzene-1,2-disulfonamide]			0.198 nM				1.84 nM	0.274 nM		1.563 µM	0.7813 µM	1.563 µM	1.00	0.7813				0.7813	
CN(C1CNC1)S(=O)(=O)c1ccc(-c2cccc3sc(N)nc23)c(-c2nnn[nH]2)c1S(N)(=O)=O.O=C(O)C(F)(F)F [Example 105, 3-(4-(2-aminobenzo[d]thiazol-4-yl)-N-methyl-2-sulfamoyl-3-(1H-tetrazol-5-yl)phenylsulfonamido)azetidin-1-ium 2,2,2-trifluoroacetate]	1.00	1.563 µM		1.563 µM	1.563 µM	6.25 µM	1.18 nM	0.206 nM	1.563 µM										1.14 nM
Nc1nc2c(-c3ccc(S(=O)(=O)N4CC[S+]([O-])CC4)c(S(N)(=O)=O)c3-c3nnn[nH]3)cccc2s1 [Example 44, 3-(2-amino-1,3-benzothiazol-4-yl)-6-[(1-oxidothiomorpholin-4-yl)sulfonyl]-2-(1H-tetrazol-5-yl)benzenesulfonamide]	2.00	12.5 µM	2.06 nM	6.25 µM	25 µM	25 µM	2.22 nM	0.872 nM	6.25 µM										
NC[C@H](CO)NS(=O)(=O)c1ccc(-c2cccc3[nH]nnc23)c(-c2nn[nH]n2)c1S(N)(=O)=O [Example 407]							1.35 nM	0.14 nM		1.563 µM	0.7813 µM	3.125 µM	2.00	3.125				1.563	0.335 nM
NCc1nc2c(-c3ccc(S(=O)(=O)N[C@H](CN)CO)c(S(N)(=O)=O)c3-c3nn[nH]n3)cccc2s1 [Example 363, (R)—N1-(1-amino-3-hydroxypropan-2-yl)-4-(2-(aminomethyl)benzo[d]thiazol-4-yl)-3-(2H-tetrazol-5-yl)benzene-1,2-disulfonamide]	4.00	3.125 µM					3.67 nM	0.649 nM	0.7813 µM	1.563 µM	3.125 µM	3.125 µM							0.591 nM
CN(CCc1ccncc1)S(=O)(=O)c1ccc(-c2cccc3sc(N)nc23)c(-c2nnn[nH]2)c1S(N)(=O)=O.O=C(O)C(F)(F)F [Example 100, 4-(2-(4-(2-aminobenzo[d]thiazol-4-yl)-N-methyl-2-sulfamoyl-3-(1H-tetrazol-5-yl)phenylsulfonamido)ethyl)pyridin-1-ium 2,2,2-trifluoroacetate]	32.00	200 µM		25 µM	50 µM	200 µM	3.26 nM	3.88 nM	6.25 µM										12.6 nM
